1 compound from patent publication US20220244254A1, “Screening Methods and Assays for Use with Transmembrane Proteins, in Particular with GPCRs” (CONFO THERAPEUTICS N.V., priority 2019, published 2022) can be followed below.

For this assay, the target named is T1, M2 receptor (Homo sapiens, UniProt P08172, DEL233-374).
T1 construct: FLAG (N); expressed in transfected cells
T1 sequence (P08172 with tags, fused parts or gaps DEL233-374): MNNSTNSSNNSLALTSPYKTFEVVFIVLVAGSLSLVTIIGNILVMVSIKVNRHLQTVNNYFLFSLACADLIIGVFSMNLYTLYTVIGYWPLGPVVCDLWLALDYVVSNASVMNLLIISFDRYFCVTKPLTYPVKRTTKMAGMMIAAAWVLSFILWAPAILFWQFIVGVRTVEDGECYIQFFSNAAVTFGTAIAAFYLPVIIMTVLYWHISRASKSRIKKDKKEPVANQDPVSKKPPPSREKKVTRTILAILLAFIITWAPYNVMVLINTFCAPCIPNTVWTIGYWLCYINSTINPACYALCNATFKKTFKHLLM
Put plainly: Assay of the invention: M2-LgBiT fusion and Nb9-8-SmBiT fusion. It is filed as cell-based.

On to `Cc1c(Cl)c(OCC(=O)N2CCN(C)CC2)nc2sc(C(=O)NC3CC3)c(N)c12` [LY2119620], for which the “agonistic effect on the M2 receptor” value (LY2119620 itself, data not shown) is “some agonistic effect”. Moreover, the “effect on the dose-response curve of iperoxo” value (iperoxo DRC with and without LY2119620) is “effect as a positive allosteric modulator”.
